In US12404241B2 (Celgene Corporation, priority 2018, dated 2025):
Where a name gives a salt, the structure may show the parent alone.

Biological target: T1, AR (Homo sapiens, UniProt P10275)
T1 construct: endogenous in cells; host or cells: VCaP cells
T1 sequence (P10275 1-920): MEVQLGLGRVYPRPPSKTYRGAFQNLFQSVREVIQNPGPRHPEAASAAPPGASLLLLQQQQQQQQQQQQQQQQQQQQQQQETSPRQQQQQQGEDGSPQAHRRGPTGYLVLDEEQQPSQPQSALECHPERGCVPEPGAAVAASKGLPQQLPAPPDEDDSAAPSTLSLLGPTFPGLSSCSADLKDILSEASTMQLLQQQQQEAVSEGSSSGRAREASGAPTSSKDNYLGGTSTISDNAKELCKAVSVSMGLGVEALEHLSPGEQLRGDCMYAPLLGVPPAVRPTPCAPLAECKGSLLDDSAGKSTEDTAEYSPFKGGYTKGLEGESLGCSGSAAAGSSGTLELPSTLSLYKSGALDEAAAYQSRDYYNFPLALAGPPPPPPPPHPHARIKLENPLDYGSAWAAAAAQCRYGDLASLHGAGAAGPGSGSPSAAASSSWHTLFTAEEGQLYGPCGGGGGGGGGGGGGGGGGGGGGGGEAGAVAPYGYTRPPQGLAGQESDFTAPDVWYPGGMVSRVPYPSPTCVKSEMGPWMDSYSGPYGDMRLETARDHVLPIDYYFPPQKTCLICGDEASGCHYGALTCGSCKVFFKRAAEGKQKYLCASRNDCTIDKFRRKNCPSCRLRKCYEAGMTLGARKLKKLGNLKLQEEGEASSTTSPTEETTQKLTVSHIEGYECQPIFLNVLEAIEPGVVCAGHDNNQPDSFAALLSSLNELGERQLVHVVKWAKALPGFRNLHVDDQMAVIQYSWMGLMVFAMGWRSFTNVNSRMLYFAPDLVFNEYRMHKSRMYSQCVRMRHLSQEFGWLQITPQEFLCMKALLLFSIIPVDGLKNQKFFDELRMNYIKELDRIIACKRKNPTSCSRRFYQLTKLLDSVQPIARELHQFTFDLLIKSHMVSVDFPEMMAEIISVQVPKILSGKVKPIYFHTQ
Experiment: VCAP AR Degradation Assay
Type: cell-based
Conditions: for Y (AR degradation efficiency, % of DMSO control): class symbols *; for DC50: class symbols A-C, read-out: DC50
Method in brief: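 24 h, 37 °C, VCaP (DMEM/8% FBS), 10-pt 1:3 dilutions from 5 μM final top, 0.1% DMSO ctrl. Lysis on ice/4 °C 1 h; total AR by sandwich ELISA, normalized to DMSO. 4PL fit → DC50, EC50, Y (min AR level).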

Y (AR degradation efficiency, % of DMSO control) | DC50 | Structure (SMILES)
* (0<Y<=25%) | < 100 nM | CCc1cc(N2C(=S)N(c3cnc(C#N)c(C(F)(F)F)c3)C(=O)C23CCC3)ccc1OCCN1CCN(CC(=O)Nc2cccc(NC3CCC(=O)NC3=O)c2)[C@H](C)C1 (stereo partly drawn) [Example 108, 2-((R)-4-(2-(4-(7-(6-cyano-5-(trifluoromethyl)pyridin-3-yl)-8-oxo-6-thioxo-5,7-diazaspiro[3.4]octan-5-yl)-2-ethylphenoxy)ethyl)-2-methylpiperazin-1-yl)-N-(3-(2,6-dioxopiperidin-3-ylamino)phenyl)acetamide]
* (0<Y<=25%) | < 100 nM | C[C@@H]1CN(CCOc2ccc(N3C(=S)N(c4cnc(C#N)c(C(F)(F)F)c4)C(=O)C3(C)C)cc2CCF)CCN1CC(=O)Nc1cccc(NC2CCC(=O)NC2=O)c1 (stereo partly drawn) [Example 166, 2-((R)-4-(2-(4-(3-(6-cyano-5-(trifluoromethyl)pyridin-3-yl)-5,5-dimethyl-4-oxo-2-thioxoimidazolidin-1-yl)-2-(2-fluoroethyl)phenoxy)ethyl)-2-methylpiperazin-1-yl)-N-(3-(2,6-dioxopiperidin-3-ylamino)phenyl)acetamide]
* (0<Y<=25%) | < 100 nM | CCc1cc(N2C(=S)N(c3cnc(C#N)c(C(F)(F)F)c3)C(=O)C2(C)C)ccc1OCCN1CCN(CC(=O)Nc2cc(NC3CCC(=O)NC3=O)ccc2F)[C@H](C)C1 (stereo partly drawn) [Example 76, 2-((R)-4-(2-(4-(3-(6-cyano-5-(trifluoromethyl)pyridin-3-yl)-5,5-dimethyl-4-oxo-2-thioxoimidazolidin-1-yl)-2-ethylphenoxy)ethyl)-2-methylpiperazin-1-yl)-N-(5-(2,6-dioxopiperidin-3-ylamino)-2-fluorophenyl)acetamide]
* (0<Y<=25%) | < 100 nM | C[C@@H]1CN(CCOc2ccc(N3C(=S)N(c4cnc(C#N)c(C(F)(F)F)c4)C(=O)C3(C)C)cc2C(C)(F)F)C[C@H](C)N1CC(=O)Nc1cccc(NC2CCC(=O)NC2=O)c1 (stereo partly drawn) [Example 255, 2-((2S,6R)-4-(2-(4-(3-(6-cyano-5-(trifluoromethyl)pyridin-3-yl)-5,5-dimethyl-4-oxo-2-thioxoimidazolidin-1-yl)-2-(1,1-difluoroethyl)phenoxy)ethyl)-2,6-dimethylpiperazin-1-yl)-N-(3-(2,6-dioxopiperidin-3-ylamino)phenyl)acetamide]
* (0<Y<=25%) | < 100 nM | CC(F)(F)c1cc(N2C(=S)N(c3cnc(C#N)c(C(F)(F)F)c3)C(=O)C2(C)C)ccc1OCCN1CCN(CC(=O)Nc2cccc(NC3CCC(=O)NC3=O)c2)CC1 (centres unmarked) [Example 60, 2-(4-(2-(4-(3-(6-cyano-5-(trifluoromethyl)pyridin-3-yl)-5,5-dimethyl-4-oxo-2-thioxoimidazolidin-1-yl)-2-(1,1-difluoroethyl)phenoxy)ethyl)piperazin-1-yl)-N-(3-(2,6-dioxopiperidin-3-ylamino)phenyl)acetamide]

Further lines, the compound ahead of its results:

Structure (SMILES) | Y (AR degradation efficiency, % of DMSO control) | DC50
C[C@@H]1CN(CCOc2ccc(N3C(=S)N(c4ccc(C#N)c(C(F)(F)F)c4)C(=O)C3(C)C)cc2Cl)CCN1CC(=O)Nc1cccc(NC2CCC(=O)NC2=O)c1 (stereo partly drawn) [Example 276, 2-((R)-4-(2-(2-chloro-4-(3-(4-cyano-3-(trifluoromethyl)phenyl)-5,5-dimethyl-4-oxo-2-thioxoimidazolidin-1-yl)phenoxy)ethyl)-2-methylpiperazin-1-yl)-N-(3-(2,6-dioxopiperidin-3-ylamino)phenyl)acetamide] | * (0<Y<=25%) | < 100 nM
C[C@@H]1CN(CCOc2ccc(N3C(=S)N(c4ccc(C#N)c(C(F)(F)F)c4)C(=O)C3(C)C)cc2CC(F)F)CCN1CC(=O)Nc1cccc(NC2CCC(=O)NC2=O)c1 (stereo partly drawn) [Example 153, 2-((R)-4-(2-(4-(3-(4-cyano-3-(trifluoromethyl)phenyl)-5,5-dimethyl-4-oxo-2-thioxoimidazolidin-1-yl)-2-(2,2-difluoroethyl)phenoxy)ethyl)-2-methylpiperazin-1-yl)-N-(3-(2,6-dioxopiperidin-3-ylamino)phenyl)acetamide] | * (0<Y<=25%) | < 100 nM
CCc1cc(N2C(=S)N(c3cnc(C#N)c(C(F)(F)F)c3)C(=O)C2(C)C)ccc1OCCN1CCN(CC(=O)Nc2cc(F)cc(NC3CCC(=O)NC3=O)c2)C(C)(C)C1 (centres unmarked) [Example 77, 2-(4-(2-(4-(3-(6-cyano-5-(trifluoromethyl)pyridin-3-yl)-5,5-dimethyl-4-oxo-2-thioxoimidazolidin-1-yl)-2-ethylphenoxy)ethyl)-2,2-dimethylpiperazin-1-yl)-N-(3-(2,6-dioxopiperidin-3-ylamino)-5-fluorophenyl)acetamide] | * (0<Y<=25%) | < 100 nM
CC1(C)C(=O)N(c2ccc(C#N)c(C(F)(F)F)c2)C(=S)N1c1ccc(OCCN2CCN(CC(=O)Nc3cccc(NC4CCC(=O)NC4=O)c3)CC2)c(C2CC2)c1 (centres unmarked) [Example 9, hydrochloride] | * (0<Y<=25%) | < 100 nM
C[C@@H]1CN(CCOc2ncc(N3C(=S)N(c4ccc(C#N)c(C(F)(F)F)c4)C(=O)C34CCC4)cc2C2CC2)C[C@H](C)N1CC(=O)Nc1cccc(NC2CCC(=O)NC2=O)c1 (stereo partly drawn) [Example 229, 2-((2S,6R)-4-(2-(5-(7-(4-cyano-3-(trifluoromethyl)phenyl)-8-oxo-6-thioxo-5,7-diazaspiro[3.4]octan-5-yl)-3-cyclopropylpyridin-2-yloxy)ethyl)-2,6-dimethylpiperazin-1-yl)-N-(3-(2,6-dioxopiperidin-3-ylamino)phenyl)acetamide] | * (0<Y<=25%) | < 100 nM
CCc1c(OCCN2C[C@@H](C)N(CC(=O)Nc3cccc(NC4CCC(=O)NC4=O)c3)[C@@H](C)C2)ccc(N2C(=S)N(c3ccc(C#N)c(C(F)(F)F)c3)C(=O)C2(C)C)c1F (stereo partly drawn) [Example 271, 2-((2S,6R)-4-(2-(4-(3-(4-cyano-3-(trifluoromethyl)phenyl)-5,5-dimethyl-4-oxo-2-thioxoimidazolidin-1-yl)-2-ethyl-3-fluorophenoxy)ethyl)-2,6-dimethylpiperazin-1-yl)-N-(3-(2,6-dioxopiperidin-3-ylamino)phenyl)acetamide] | * (0<Y<=25%) | < 100 nM
C[C@@H]1CN(CCOc2ccc(N3C(=S)N(c4ccc(C#N)c(Cl)c4)C(=O)C3(C)C)cc2C2CC2)C[C@H](C)N1CC(=O)Nc1cc(NC2CCC(=O)NC2=O)ccc1F (stereo partly drawn) [Example 221, 2-((2S,6R)-4-(2-(4-(3-(3-chloro-4-cyanophenyl)-5,5-dimethyl-4-oxo-2-thioxoimidazolidin-1-yl)-2-cyclopropylphenoxy)ethyl)-2,6-dimethylpiperazin-1-yl)-N-(5-(2,6-dioxopiperidin-3-ylamino)-2-fluorophenyl)acetamide] | ** (25%<Y<=35%) | < 100 nM
CCc1cc(N2C(=S)N(c3cnc(C#N)c(C(F)(F)F)c3)C(=O)C2(C)C)ccc1OCCN1CCN([C@@H](C)C(=O)Nc2cc(Cl)cc(NC3CCC(=O)NC3=O)c2)CC1 (single isomer, unassigned) [Example 114] | * (0<Y<=25%) | < 100 nM
